Series [1] has as its target T1, OATP2B1 (Homo sapiens, UniProt O94956).
T1 construct: expressed in transfected cells; host or cells: HEK293 (lentiviral transduction; cDNA synthesised by GenScript)
As to the kind of experiment: Uptake inhibition assay, OATP2B1-overexpressing HEK293 cells. The format is cell-based. The settings on record: oxindole alkaloids, substrate E3S, read-out: IC50 (95% CI of IC50). The procedure: (§1) The human embryonic kidney 293 (HEK293) cell line was purchased from Invitrogen/ThermoFisher (Waltham, MA, USA). Madin–Darby canine kidney II (MDCKII) wild type cells were obtained from the European Collection of Authenticated Cell Cultures (ECACC catalog no. 00062107). […]
(§2) Plated cells were preincubated with a transport buffer (HBSS) containing 30 or 150 µg/mL of UT extract or 100 µM of isopteropodine, mitraphylline, or uncarine D for 15 min at an appropriate temperature. […] For radiolabeled substrates, accumulation was measured by liquid scintillation counting (MicroBeta Scintillation Counter, PerkinElmer).
(§3) The transporter-mediated uptake and ATP-dependent transport were determined by subtracting the activity of the control cell/transporter abundant-membrane in the presence of AMP from the activity of the transporter-overexpressing cell/transporter-abundant membrane in the presence of ATP. The relative transporter-specific accumulation was expressed as the percent of DMSO activity. […] Confidence intervals (CIs) of 95% were also determined. […]

In series [2] the target is T2, OAT2 (Homo sapiens, UniProt Q9Y694).
T2 construct: expressed in transfected cells; host or cells: HEK293 (lentiviral transduction; cDNA synthesised by GenScript)
In words: Uptake inhibition assay, OAT2-overexpressing HEK293 cells. The settings on record: at 100 µM. The format is cell-based. The procedure:
as §1, §2, §3

Series [3] concerns the target T3, OCT2 (Homo sapiens, UniProt O15244).
T3 construct: expressed in transfected cells; host or cells: HEK293 (lentiviral transduction; cDNA synthesised by GenScript)
In words: Uptake inhibition assay, OCT2-overexpressing HEK293 cells. Particulars: oxindole alkaloids; substrate metformin; read-out: IC50 (95% CI of IC50). The format is cell-based. The procedure:
as §1, §2, §3

Series [4] addresses T4, SGLT2 (Homo sapiens, UniProt P31639).
T4 construct: expressed in transfected cells; host or cells: HEK293 (lentiviral transduction; cDNA synthesised by GenScript)
In words: Uptake inhibition assay, SGLT2-overexpressing HEK293 cells. The format is cell-based. The procedure: as §1, §2, §3

Series [5] concerns the target T5, ENT1 (Homo sapiens, UniProt Q99808).
T5 construct: expressed in transfected cells; host or cells: MDCKII (lentiviral transduction; cDNA synthesised by GenScript)
T5 sequence (Q99808 1-456): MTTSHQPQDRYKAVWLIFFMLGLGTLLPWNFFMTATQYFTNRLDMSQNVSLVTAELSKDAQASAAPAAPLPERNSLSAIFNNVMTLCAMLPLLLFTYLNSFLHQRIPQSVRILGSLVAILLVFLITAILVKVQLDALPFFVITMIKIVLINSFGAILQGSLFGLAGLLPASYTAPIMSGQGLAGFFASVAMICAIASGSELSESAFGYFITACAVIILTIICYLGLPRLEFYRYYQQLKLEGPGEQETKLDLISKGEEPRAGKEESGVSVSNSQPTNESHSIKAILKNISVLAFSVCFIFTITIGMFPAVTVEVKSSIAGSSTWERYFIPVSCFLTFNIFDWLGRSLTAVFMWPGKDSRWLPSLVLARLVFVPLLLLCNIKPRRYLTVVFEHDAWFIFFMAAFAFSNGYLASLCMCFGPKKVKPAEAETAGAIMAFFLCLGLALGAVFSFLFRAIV
As to the kind of experiment: Uptake inhibition assay, ENT1-overexpressing MDCKII cells. The format is cell-based. The settings on record: for IC50: oxindole alkaloids, substrate uridine, read-out: IC50 (95% CI of IC50).
Excerpt: The human embryonic kidney 293 (HEK293) cell line was purchased from Invitrogen/ThermoFisher (Waltham, MA, USA). Madin–Darby canine kidney II (MDCKII) wild type cells were obtained from the European Collection of Authenticated Cell Cultures (ECACC catalog no. 00062107). HEK293 cells overexpressing the human uptake OATP1B1 (NCBI Reference Sequence: NM_006446.4), OATP1B3 (NM_019844), OATP2B1 (NM_007256), OATP1A2 (NM_134431), OAT1-3 (BC033682.1; NM_006672.3; BC022387), OCT1-3 (BC126364.1; NM_003058; NM_021977), OCTN1 (NM_003059.3), NTCP (NM_003049.3), MATE1 (NM_018242.3), MATE2K (NM_001099646.2), ENT4 (NM_001040661.1), SGLT2 (AJ133127.1), ASCT1/2 (NM_003038.5; NM_005628.3), LAT1/2 (NM_003486.6; NM_012244.4), and THTR1/2 (NM_006996; NM_025243) and mock and human efflux BCRP (NM_004827.2), BSEP (NM_003742.2), MDR1 (NM_000927.4), and MRP1-5 (NM_004996; NM_000392.4; BC137347.1; NM_005845.4; NM_005688.2) transporters as well as MDCKII overexpressing human ENT1/2 (NM_001078177; NM_001532.2) and URAT1 (BC053348) transporters were created by lentiviral transduction. The cDNA encoding respective transporters were synthetized and cloned by GenScript (Piscataway, NJ, USA). […]
as §2, §3

In series [6] the target is T6, OCTN1 (Homo sapiens, UniProt Q9H015).
T6 construct: expressed in transfected cells; host or cells: HEK293 (lentiviral transduction; cDNA synthesised by GenScript)
As to the kind of experiment: Uptake inhibition assay, OCTN1-overexpressing HEK293 cells. Particulars: in the presence of the alkaloid (100 µM, Figure 3). The class given is cell-based. The procedure: as §1, §2, §3

The subject of series [7] is MDR1. Particulars: MDR1-overexpressing MDCKII cells and Caco-2 cells; cited from earlier work.
Series [8] concerns MRPs. Particulars: cited from earlier work.

Read-outs that look alike come from different tables or passages of the source.

T1 sequence (O94956 whole entry): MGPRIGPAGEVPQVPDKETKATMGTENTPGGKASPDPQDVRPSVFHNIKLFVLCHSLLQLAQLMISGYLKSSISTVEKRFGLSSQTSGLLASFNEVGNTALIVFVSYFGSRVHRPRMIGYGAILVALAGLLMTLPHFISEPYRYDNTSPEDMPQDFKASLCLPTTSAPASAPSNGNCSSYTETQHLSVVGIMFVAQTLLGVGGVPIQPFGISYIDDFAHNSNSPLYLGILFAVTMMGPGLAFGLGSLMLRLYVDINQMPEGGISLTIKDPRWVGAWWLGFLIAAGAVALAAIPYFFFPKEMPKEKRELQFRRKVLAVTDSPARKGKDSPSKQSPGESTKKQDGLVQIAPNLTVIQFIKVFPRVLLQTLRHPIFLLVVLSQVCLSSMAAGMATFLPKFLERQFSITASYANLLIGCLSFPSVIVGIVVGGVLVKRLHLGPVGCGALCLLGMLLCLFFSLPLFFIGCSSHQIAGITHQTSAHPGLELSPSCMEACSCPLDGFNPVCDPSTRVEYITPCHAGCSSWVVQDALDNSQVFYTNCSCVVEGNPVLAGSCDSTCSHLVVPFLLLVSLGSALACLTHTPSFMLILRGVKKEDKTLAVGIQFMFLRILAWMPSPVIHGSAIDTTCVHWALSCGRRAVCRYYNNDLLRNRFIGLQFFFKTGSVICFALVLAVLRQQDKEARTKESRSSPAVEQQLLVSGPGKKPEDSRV
T4 sequence (P31639 whole entry): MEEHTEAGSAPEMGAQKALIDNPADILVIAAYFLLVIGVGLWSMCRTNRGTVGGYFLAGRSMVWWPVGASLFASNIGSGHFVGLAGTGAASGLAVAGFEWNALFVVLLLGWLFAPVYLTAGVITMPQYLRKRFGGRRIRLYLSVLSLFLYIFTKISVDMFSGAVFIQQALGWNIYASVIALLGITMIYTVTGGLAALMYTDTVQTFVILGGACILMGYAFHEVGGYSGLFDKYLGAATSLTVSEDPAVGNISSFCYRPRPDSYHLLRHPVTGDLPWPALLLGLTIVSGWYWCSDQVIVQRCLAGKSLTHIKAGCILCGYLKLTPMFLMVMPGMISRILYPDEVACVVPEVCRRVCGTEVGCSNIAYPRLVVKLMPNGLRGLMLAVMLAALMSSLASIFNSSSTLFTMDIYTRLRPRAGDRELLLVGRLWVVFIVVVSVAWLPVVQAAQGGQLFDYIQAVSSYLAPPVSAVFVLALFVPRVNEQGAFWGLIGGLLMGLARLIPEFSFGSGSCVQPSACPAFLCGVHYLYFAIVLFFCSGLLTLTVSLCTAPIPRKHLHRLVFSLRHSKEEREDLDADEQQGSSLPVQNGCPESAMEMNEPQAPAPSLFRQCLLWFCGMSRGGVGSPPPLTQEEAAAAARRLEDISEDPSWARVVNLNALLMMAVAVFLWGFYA
T2 sequence (Q9Y694 1-546 isoform Q9Y694-2): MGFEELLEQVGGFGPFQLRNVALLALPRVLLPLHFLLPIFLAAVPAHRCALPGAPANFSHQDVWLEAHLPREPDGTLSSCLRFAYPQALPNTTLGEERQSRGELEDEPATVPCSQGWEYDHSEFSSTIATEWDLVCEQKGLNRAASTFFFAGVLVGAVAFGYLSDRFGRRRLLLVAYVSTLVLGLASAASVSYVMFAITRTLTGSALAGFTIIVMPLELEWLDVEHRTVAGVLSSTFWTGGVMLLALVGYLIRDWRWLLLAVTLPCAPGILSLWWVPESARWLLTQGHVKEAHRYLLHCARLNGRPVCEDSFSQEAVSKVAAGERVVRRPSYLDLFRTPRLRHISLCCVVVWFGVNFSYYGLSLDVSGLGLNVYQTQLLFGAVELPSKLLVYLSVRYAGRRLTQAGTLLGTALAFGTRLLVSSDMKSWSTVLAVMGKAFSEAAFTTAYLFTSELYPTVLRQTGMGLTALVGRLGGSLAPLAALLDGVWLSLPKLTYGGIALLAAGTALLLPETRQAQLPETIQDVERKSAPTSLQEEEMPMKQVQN
T6 sequence (Q9H015 whole entry): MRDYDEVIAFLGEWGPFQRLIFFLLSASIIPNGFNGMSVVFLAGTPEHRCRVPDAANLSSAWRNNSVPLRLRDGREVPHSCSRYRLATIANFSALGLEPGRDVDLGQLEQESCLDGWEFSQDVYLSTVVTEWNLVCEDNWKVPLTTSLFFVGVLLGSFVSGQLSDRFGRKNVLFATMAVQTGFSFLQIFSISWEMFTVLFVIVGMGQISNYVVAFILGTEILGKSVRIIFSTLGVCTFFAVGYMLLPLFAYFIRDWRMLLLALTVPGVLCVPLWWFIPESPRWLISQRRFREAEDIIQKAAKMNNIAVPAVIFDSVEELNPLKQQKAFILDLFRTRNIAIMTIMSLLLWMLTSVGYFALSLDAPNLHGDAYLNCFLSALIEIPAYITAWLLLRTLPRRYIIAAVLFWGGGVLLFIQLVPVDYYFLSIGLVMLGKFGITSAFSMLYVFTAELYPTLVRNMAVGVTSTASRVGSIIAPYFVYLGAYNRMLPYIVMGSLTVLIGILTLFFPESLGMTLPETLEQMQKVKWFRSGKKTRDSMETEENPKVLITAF
T3 sequence (O15244 whole entry): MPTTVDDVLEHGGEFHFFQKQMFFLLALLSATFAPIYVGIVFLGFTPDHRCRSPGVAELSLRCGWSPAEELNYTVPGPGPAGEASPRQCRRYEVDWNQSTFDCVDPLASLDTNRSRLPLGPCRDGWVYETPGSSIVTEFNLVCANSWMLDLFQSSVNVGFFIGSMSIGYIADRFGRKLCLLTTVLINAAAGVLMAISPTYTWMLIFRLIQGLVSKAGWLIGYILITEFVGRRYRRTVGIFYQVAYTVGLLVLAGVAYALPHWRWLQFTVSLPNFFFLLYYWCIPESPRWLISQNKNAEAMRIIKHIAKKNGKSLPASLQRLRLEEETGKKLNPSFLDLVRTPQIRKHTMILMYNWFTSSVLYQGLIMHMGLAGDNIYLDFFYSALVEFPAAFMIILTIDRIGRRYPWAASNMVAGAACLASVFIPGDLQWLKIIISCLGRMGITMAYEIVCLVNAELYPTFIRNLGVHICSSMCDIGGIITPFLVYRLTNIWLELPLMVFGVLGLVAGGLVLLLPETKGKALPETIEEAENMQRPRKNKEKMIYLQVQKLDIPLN

With `COC(=O)C1=CO[C@@H](C)[C@@H]2CN3CC[C@@]4(C(=O)Nc5ccccc54)[C@@H]3C[C@H]12` [isopteropodine], the IC50 – broadly, the concentration needed to halve the response being measured – was found to be 45.4 µM in series [1] (listed as Isopteropodine); 45.4 µM in series [1]; 16.1 µM in series [3]; 72.7 µM in series [4] (oxindole alkaloids, substrate AMG, read-out: IC50 (95% CI of IC50)). The “decrease of transporter-mediated transport” value in series [2] and in series [4] (at 100 µM) was “around 50%” each time.

With `COC(=O)C1=CO[C@@H](C)[C@H]2CN3CC[C@]4(C(=O)Nc5ccccc54)[C@@H]3C[C@H]12` [mitraphylline], the transporter-mediated substrate accumulation result in series [5] (in the presence of the alkaloid (100 µM, Figure 3)) was “below 50%”; in series [6], “below 50%”. Moreover, the IC50 in series [5] (listed as Mitraphylline) and in series [5] was 49.6 µM in each case. The MDR1 substrate status result in series [7] is reported as “MDR1 substrate”. Further, the “interaction with MRPs” value in series [8] is given as “not to interact with MRPs”.
